Results reported in PubChem BioAssay (NCI).
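Where inhibition never reached the appropriate level, the endpoint shown equals the highest concentration tested. Otherwise, values were interpolated linearly from a five-concentration, 48-hour dose response in 96-well plates. At the GI50, growth is halved. TGI denotes the concentration required for complete inhibition of growth.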

Tests used:
Assay in all cases: inhibition of tumour cell growth, NCI panel, 48 h
MOLT-4 leukemia = tested on: MOLT-4 leukemia
SR leukemia = tested on: SR leukemia
KM12 colon = tested on: KM12 colon
MDA-MB-435 = tested on: MDA-MB-435
OVCAR-8 ovarian = tested on: OVCAR-8 ovarian
T-47D breast = tested on: T-47D breast
A549 NSCLC = tested on: A549 NSCLC
M14 melanoma = tested on: M14 melanoma
U251 CNS = tested on: U251 CNS
A498 renal = tested on: A498 renal
SK-OV-3 ovarian = tested on: SK-OV-3 ovarian
SN12C renal = tested on: SN12C renal
SK-MEL-5 melanoma = tested on: SK-MEL-5 melanoma
OVCAR-3 ovarian = tested on: OVCAR-3 ovarian
SK-MEL-28 melanoma = tested on: SK-MEL-28 melanoma
BT-549 breast = tested on: BT-549 breast
MCF7 breast = tested on: MCF7 breast
SNB-75 CNS = tested on: SNB-75 CNS
HOP-92 NSCLC = tested on: HOP-92 NSCLC
HCC-2998 colon = tested on: HCC-2998 colon
HL-60(TB) leukemia = tested on: HL-60(TB) leukemia
NCI/ADR-RES ovarian = tested on: NCI/ADR-RES ovarian
NCI-H23 lung = tested on: NCI-H23 lung
IGROV1 ovarian = tested on: IGROV1 ovarian
ACHN renal = tested on: ACHN renal
NCI-H226 lung = tested on: NCI-H226 lung
SK-MEL-2 melanoma = tested on: SK-MEL-2 melanoma
OVCAR-4 ovarian = tested on: OVCAR-4 ovarian
PC-3 prostate = tested on: PC-3 prostate
HS 578T breast = tested on: HS 578T breast
HCT-116 colon = tested on: HCT-116 colon
SF-539 CNS = tested on: SF-539 CNS
786-0 renal = tested on: 786-0 renal
SNB-19 CNS = tested on: SNB-19 CNS
NCI-H460 lung = tested on: NCI-H460 lung
UACC-257 melanoma = tested on: UACC-257 melanoma
RPMI-8226 leukemia = tested on: RPMI-8226 leukemia
DU-145 prostate = tested on: DU-145 prostate
RXF 393 renal = tested on: RXF 393 renal
LOX IMVI melanoma = tested on: LOX IMVI melanoma
HOP-62 NSCLC = tested on: HOP-62 NSCLC
CCRF-CEM leukemia = tested on: CCRF-CEM leukemia
SF-295 CNS = tested on: SF-295 CNS
MDA-MB-231 breast = tested on: MDA-MB-231 breast
K-562 leukemia = tested on: K-562 leukemia
NCI-H522 lung = tested on: NCI-H522 lung
SW-620 colon = tested on: SW-620 colon
SF-268 CNS = tested on: SF-268 CNS
UO-31 renal = tested on: UO-31 renal
CAKI-1 renal = tested on: CAKI-1 renal
HT29 colon = tested on: HT29 colon
UACC-62 melanoma = tested on: UACC-62 melanoma
MALME-3M melanoma = tested on: MALME-3M melanoma
OVCAR-5 ovarian = tested on: OVCAR-5 ovarian
COLO 205 colon = tested on: COLO 205 colon
HCT-15 colon = tested on: HCT-15 colon

For `O=C(CI)OCC(COC(=O)CI)OC(=O)CI`, which GI50 (MOLT-4 leukemia) is on record?
Its GI50 is 2.06 µM.

What about the TGI (MOLT-4 leukemia) of the same compound?
The TGI was 4.57 µM.

And the GI50 (SR leukemia)?
The GI50 was 2.36 µM.

And the TGI (SR leukemia)?
The TGI was 7.58 µM.

And the GI50 (KM12 colon)?
Its GI50 is 11.7 µM.

And the TGI (KM12 colon)?
Its TGI is 26.8 µM.

And the GI50 (MDA-MB-435)?
Its GI50 is 10.6 µM.

What about the TGI (MDA-MB-435) of the same compound?
Its TGI is 23.5 µM.

And the GI50 (OVCAR-8 ovarian)?
The GI50 was 2.53 µM.

And the TGI (OVCAR-8 ovarian)?
Its TGI is 6.92 µM.

What about the GI50 (T-47D breast) of the same compound?
The GI50 was 1.98 µM.

What about the TGI (T-47D breast) of the same compound?
Its TGI is 4.46 µM.

And the GI50 (A549 NSCLC)?
The GI50 was 16.8 µM.

And the TGI (A549 NSCLC)?
The TGI was 35.5 µM.

And the GI50 (M14 melanoma)?
The GI50 was 7.57 µM.

And the TGI (M14 melanoma)?
Its TGI is 22 µM.

What about the GI50 (U251 CNS) of the same compound?
Its GI50 is 11.9 µM.

And the TGI (U251 CNS)?
Its TGI is 25.2 µM.

And the GI50 (A498 renal)?
The GI50 was 10.9 µM.

And the TGI (A498 renal)?
The TGI was 26.7 µM.

What about the GI50 (SK-OV-3 ovarian) of the same compound?
Its GI50 is 17.3 µM.

And the TGI (SK-OV-3 ovarian)?
The TGI was 31.1 µM.

And the GI50 (SN12C renal)?
The GI50 was 4.01 µM.

What about the TGI (SN12C renal) of the same compound?
Its TGI is 15 µM.

And the GI50 (SK-MEL-5 melanoma)?
Its GI50 is 13.8 µM.

What about the TGI (SK-MEL-5 melanoma) of the same compound?
The TGI was 27.6 µM.

And the GI50 (OVCAR-3 ovarian)?
The GI50 was 2.07 µM.

And the TGI (OVCAR-3 ovarian)?
Its TGI is 3.94 µM.

And the GI50 (SK-MEL-28 melanoma)?
The GI50 was 5.54 µM.

And the TGI (SK-MEL-28 melanoma)?
Its TGI is 16 µM.

What about the GI50 (BT-549 breast) of the same compound?
The GI50 was 4.56 µM.

And the TGI (BT-549 breast)?
The TGI was 15.7 µM.

And the GI50 (MCF7 breast)?
The GI50 was 3.38 µM.

What about the TGI (MCF7 breast) of the same compound?
The TGI was 14.8 µM.

What about the GI50 (SNB-75 CNS) of the same compound?
Its GI50 is 13.7 µM.

What about the TGI (SNB-75 CNS) of the same compound?
The TGI was 29.3 µM.

And the GI50 (HOP-92 NSCLC)?
Its GI50 is 1.86 µM.

What about the TGI (HOP-92 NSCLC) of the same compound?
Its TGI is 4.03 µM.

And the GI50 (HCC-2998 colon)?
Its GI50 is 16.3 µM.

What about the TGI (HCC-2998 colon) of the same compound?
Its TGI is 31.3 µM.

And the GI50 (HL-60(TB) leukemia)?
The GI50 was 1.99 µM.

And the TGI (HL-60(TB) leukemia)?
The TGI was 4.19 µM.

And the GI50 (NCI/ADR-RES ovarian)?
The GI50 was 18.4 µM.

What about the TGI (NCI/ADR-RES ovarian) of the same compound?
The TGI was 45.3 µM.

And the GI50 (NCI-H23 lung)?
Its GI50 is 5.36 µM.

And the TGI (NCI-H23 lung)?
The TGI was 19.6 µM.

And the GI50 (IGROV1 ovarian)?
Its GI50 is 1.75 µM.

And the TGI (IGROV1 ovarian)?
Its TGI is 3.5 µM.

What about the GI50 (ACHN renal) of the same compound?
Its GI50 is 1.84 µM.

And the TGI (ACHN renal)?
Its TGI is 3.37 µM.

And the GI50 (NCI-H226 lung)?
The GI50 was 15.6 µM.

And the TGI (NCI-H226 lung)?
Its TGI is 38.8 µM.

What about the GI50 (SK-MEL-2 melanoma) of the same compound?
The GI50 was 10.3 µM.

And the TGI (SK-MEL-2 melanoma)?
The TGI was 25.5 µM.

And the GI50 (OVCAR-4 ovarian)?
The GI50 was 1.8 µM.

What about the TGI (OVCAR-4 ovarian) of the same compound?
Its TGI is 4.3 µM.

What about the GI50 (PC-3 prostate) of the same compound?
The GI50 was 6.46 µM.

And the TGI (PC-3 prostate)?
Its TGI is 20.7 µM.

And the GI50 (HS 578T breast)?
Its GI50 is 4.88 µM.

And the TGI (HS 578T breast)?
The TGI was 27.7 µM.

What about the GI50 (HCT-116 colon) of the same compound?
Its GI50 is 1.67 µM.

And the TGI (HCT-116 colon)?
Its TGI is 3.41 µM.

What about the GI50 (SF-539 CNS) of the same compound?
The GI50 was 13.7 µM.

And the TGI (SF-539 CNS)?
Its TGI is 27.2 µM.

What about the GI50 (786-0 renal) of the same compound?
The GI50 was 2.38 µM.

And the TGI (786-0 renal)?
The TGI was 6.28 µM.

And the GI50 (SNB-19 CNS)?
Its GI50 is 16.5 µM.

What about the TGI (SNB-19 CNS) of the same compound?
Its TGI is 32.7 µM.

And the GI50 (NCI-H460 lung)?
Its GI50 is 18 µM.

And the TGI (NCI-H460 lung)?
Its TGI is 36.9 µM.

And the GI50 (UACC-257 melanoma)?
Its GI50 is 4.06 µM.

And the TGI (UACC-257 melanoma)?
Its TGI is 15.4 µM.

What about the GI50 (RPMI-8226 leukemia) of the same compound?
Its GI50 is 2.22 µM.

And the TGI (RPMI-8226 leukemia)?
Its TGI is 4.96 µM.

What about the GI50 (DU-145 prostate) of the same compound?
Its GI50 is 8.62 µM.

And the TGI (DU-145 prostate)?
Its TGI is 22.3 µM.

And the GI50 (RXF 393 renal)?
The GI50 was 2.4 µM.

What about the TGI (RXF 393 renal) of the same compound?
The TGI was 7.55 µM.

And the GI50 (LOX IMVI melanoma)?
The GI50 was 1.03 µM.

What about the TGI (LOX IMVI melanoma) of the same compound?
Its TGI is 3 µM.

And the GI50 (HOP-62 NSCLC)?
Its GI50 is 10.8 µM.

And the TGI (HOP-62 NSCLC)?
The TGI was 27.8 µM.

What about the GI50 (CCRF-CEM leukemia) of the same compound?
The GI50 was 1.73 µM.

What about the TGI (CCRF-CEM leukemia) of the same compound?
Its TGI is 3.95 µM.

What about the GI50 (SF-295 CNS) of the same compound?
Its GI50 is 16.3 µM.

What about the TGI (SF-295 CNS) of the same compound?
The TGI was 32 µM.

And the GI50 (MDA-MB-231 breast)?
Its GI50 is 9.3 µM.

And the TGI (MDA-MB-231 breast)?
Its TGI is 24.6 µM.

What about the GI50 (K-562 leukemia) of the same compound?
Its GI50 is 2.39 µM.

What about the TGI (K-562 leukemia) of the same compound?
The TGI was 5.73 µM.

And the GI50 (NCI-H522 lung)?
Its GI50 is 0.506 µM.

And the TGI (NCI-H522 lung)?
The TGI was 1.27 µM.

And the GI50 (SW-620 colon)?
Its GI50 is 1.92 µM.

And the TGI (SW-620 colon)?
Its TGI is 4 µM.

And the GI50 (SF-268 CNS)?
The GI50 was 13.2 µM.

And the TGI (SF-268 CNS)?
Its TGI is 29.5 µM.

What about the GI50 (UO-31 renal) of the same compound?
The GI50 was 1.39 µM.

And the TGI (UO-31 renal)?
The TGI was 2.84 µM.

What about the GI50 (CAKI-1 renal) of the same compound?
Its GI50 is 1.96 µM.

What about the TGI (CAKI-1 renal) of the same compound?
The TGI was 3.91 µM.

What about the GI50 (HT29 colon) of the same compound?
The GI50 was 2.92 µM.

And the TGI (HT29 colon)?
Its TGI is 8.91 µM.

And the GI50 (UACC-62 melanoma)?
The GI50 was 3.05 µM.

And the TGI (UACC-62 melanoma)?
The TGI was 12.3 µM.

What about the GI50 (MALME-3M melanoma) of the same compound?
Its GI50 is 1.6 µM.

And the TGI (MALME-3M melanoma)?
The TGI was 3.29 µM.

What about the GI50 (OVCAR-5 ovarian) of the same compound?
Its GI50 is 16.4 µM.

And the TGI (OVCAR-5 ovarian)?
The TGI was 32.8 µM.

What about the GI50 (COLO 205 colon) of the same compound?
The GI50 was 1.88 µM.

What about the TGI (COLO 205 colon) of the same compound?
Its TGI is 3.52 µM.

And the GI50 (HCT-15 colon)?
The GI50 was 1.73 µM.

And the TGI (HCT-15 colon)?
The TGI was 3.61 µM.
